Data published in the supplement of paper PMC11451515.

Test system: SEM cells
Assay: cell viability relative to DMSO control; higher = less cytotoxic
Details: 48 h
Procedure, shortened: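 NOMO1 or SEM (500 cells/well) or P12-Ichikawa (1000 cells/well) leukemia cells were adapted for at least four passages in each medium. They were seeded in 1536-well plates (5 μl) and pin-dosed with library compounds in DMSO over an 11-point threefold series, 47 μM to 0.79 nM. CellTiter-Glo One luminescence was read after 48 h at 37°C. Viability is the per-plate percentage relative to DMSO wells, with cell-free wells as background.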

[1] = HPLM + 10% dialyzed FBS, 0.000781 µM
[2] = HPLM + 10% dialyzed FBS, 0.00234 µM
[3] = HPLM + 10% dialyzed FBS, 0.00702 µM
[4] = HPLM + 10% dialyzed FBS, 0.0211 µM
[5] = HPLM + 10% dialyzed FBS, 0.0632 µM
[6] = HPLM + 10% dialyzed FBS, 0.19 µM
[7] = HPLM + 10% dialyzed FBS, 0.569 µM
[8] = HPLM + 10% dialyzed FBS, 1.71 µM
[9] = HPLM + 10% dialyzed FBS, 5.12 µM
[10] = HPLM + 10% dialyzed FBS, 15.4 µM
[11] = HPLM + 10% dialyzed FBS, 46.1 µM
[12] = RPMI 5 mM glucose + 10% FBS, 0.000781 µM
[13] = RPMI 5 mM glucose + 10% FBS, 0.00234 µM
[14] = RPMI 5 mM glucose + 10% FBS, 0.00702 µM
[15] = RPMI 5 mM glucose + 10% FBS, 0.0211 µM
[16] = RPMI 5 mM glucose + 10% FBS, 0.0632 µM
[17] = RPMI 5 mM glucose + 10% FBS, 0.19 µM
[18] = RPMI 5 mM glucose + 10% FBS, 0.569 µM
[19] = RPMI 5 mM glucose + 10% FBS, 1.71 µM
[20] = RPMI 5 mM glucose + 10% FBS, 5.12 µM
[21] = RPMI 5 mM glucose + 10% FBS, 15.4 µM
[22] = RPMI 5 mM glucose + 10% FBS, 46.1 µM
[23] = RPMI 5 mM glucose + 10% dialyzed FBS, 0.000781 µM
[24] = RPMI 5 mM glucose + 10% dialyzed FBS, 0.00234 µM
[25] = RPMI 5 mM glucose + 10% dialyzed FBS, 0.00702 µM
[26] = RPMI 5 mM glucose + 10% dialyzed FBS, 0.0211 µM
[27] = RPMI 5 mM glucose + 10% dialyzed FBS, 0.0632 µM
[28] = RPMI 5 mM glucose + 10% dialyzed FBS, 0.19 µM
[29] = RPMI 5 mM glucose + 10% dialyzed FBS, 0.569 µM
[30] = RPMI 5 mM glucose + 10% dialyzed FBS, 1.71 µM
[31] = RPMI 5 mM glucose + 10% dialyzed FBS, 5.12 µM
[32] = RPMI 5 mM glucose + 10% dialyzed FBS, 15.4 µM
[33] = RPMI 5 mM glucose + 10% dialyzed FBS, 46.1 µM

Row | SMILES | cell viability [1] [%] | cell viability [2] [%] | cell viability [3] [%] | cell viability [4] [%] | cell viability [5] [%] | cell viability [6] [%] | cell viability [7] [%] | cell viability [8] [%] | cell viability [9] [%] | cell viability [10] [%] | cell viability [11] [%] | cell viability [12] [%] | cell viability [13] [%] | cell viability [14] [%] | cell viability [15] [%] | cell viability [16] [%] | cell viability [17] [%] | cell viability [18] [%] | cell viability [19] [%] | cell viability [20] [%] | cell viability [21] [%] | cell viability [22] [%] | cell viability [23] [%] | cell viability [24] [%] | cell viability [25] [%] | cell viability [26] [%] | cell viability [27] [%] | cell viability [28] [%] | cell viability [29] [%] | cell viability [30] [%] | cell viability [31] [%] | cell viability [32] [%] | cell viability [33] [%]
1 | COc1ccc(CCC(=O)Nc2nc3ccc(Cl)cc3s2)cc1OC | 104 | 114 | 121 | 111 | 120 | 104 | 116 | 112 | 132 | 116 | 111 | 112 | 92.8 | 108 | 102 | 123 | 127 | 124 | 126 | 115 | 104 | 95 | 120 | 102 | 105 | 113 | 120 | 107 | 101 | 121 | 102 | 117 | 105
2 | CCCn1c(=O)c2[nH]c(-c3cnn(Cc4cccc(C(F)(F)F)c4)c3)nc2n(CC)c1=O | 100 | 109 | 111 | 120 | 109 | 124 | 124 | 113 | 107 | 109 | 95.4 | 95.8 | 89.9 | 106 | 109 | 103 | 108 | 99.8 | 94.4 | 116 | 109 | 90.5 | 109 | 109 | 111 | 111 | 116 | 124 | 109 | 104 | 112 | 117 | 98.4
3 | Cl.Cl.Fc1ccc(C(OCCN2CCN(CCCc3ccccc3)CC2)c2ccc(F)cc2)cc1 | 97.4 | 96 | 99.3 | 104 | 104 | 93.2 | 97.1 | 113 | 111 | 99.7 | 32.4 | 111 | 112 | 111 | 120 | 109 | 114 | 103 | 107 | 102 | 115 | 22.3 | 84.9 | 99.5 | 105 | 118 | 120 | 124 | 130 | 122 | 120 | 110 | 27.9
4 | c1cc(-c2sc(-c3ccncc3)c(-c3ccncc3)c2-c2ccncc2)ccn1 | 90.9 | 107 | 108 | 110 | 106 | 116 | 107 | 82.4 | 43.3 | 20.7 | 14.9 | 89.6 | 87.8 | 93.9 | 89.3 | 106 | 97.9 | 101 | 63.5 | 29.6 | 17.9 | 13.2 | 102 | 101 | 118 | 113 | 106 | 110 | 103 | 67.3 | 41 | 22.4 | 15.1
5 | COc1cc2c(NC3CCN(C(C)C)CC3)nc(C3CCCCC3)nc2cc1OCCCN1CCCC1 | 111 | 125 | 109 | 122 | 122 | 125 | 130 | 81.9 | 108 | 61.7 | 6.83 | 109 | 113 | 122 | 116 | 112 | 122 | 109 | 77.3 | 113 | 76.6 | 10.2 | 90.1 | 114 | 111 | 119 | 116 | 113 | 112 | 76.8 | 115 | 93.5 | 32.9
6 | CCCn1c(=O)c2[nH]c(C34CC5CC3C[C@@H](C5)C4)nc2n(CCC)c1=O | 102 | 84.8 | 103 | 109 | 110 | 122 | 115 | 103 | 97.9 | 95.5 | 97.8 | 50.7 | 44.7 | 84.2 | 94.6 | 107 | 101 | 94.1 | 97.2 | 94.8 | 91.1 | 84.4 | 91.6 | 73.2 | 116 | 130 | 117 | 110 | 118 | 109 | 101 | 91.5 | 111
7 | c1ccc2c(Oc3nc(Nc4ccc(N5CCOCC5)cc4)c4ncn(C5CCCCC5)c4n3)cccc2c1 | 91 | 96.7 | 101 | 112 | 120 | 116 | 131 | 120 | 99.7 | 100 | 67.1 | 101 | 122 | 138 | 133 | 133 | 136 | 125 | 139 | 108 | 105 | 67 | 108 | 141 | 115 | 130 | 142 | 129 | 126 | 109 | 126 | 110 | 53.4
8 | COc1ccc(Cn2ccc3ccc(C(=O)NO)cc32)cc1 | 102 | 107 | 120 | 120 | 123 | 113 | 127 | 118 | 112 | 114 | 58.5 | 103 | 115 | 122 | 98.1 | 109 | 129 | 127 | 127 | 109 | 109 | 49.3 | 99.6 | 110 | 115 | 76.3 | 114 | 118 | 112 | 110 | 112 | 111 | 38.5
9 | CC(C)(C)C1=NC2=C([NH]1)C3=CC=C(F)C=C3C4=C2\C=C/NC4=O | 118 | 114 | 130 | 130 | 125 | 116 | 111 | 89 | 38.8 | 32.1 | 50.1 | 96.8 | 116 | 141 | 115 | 126 | 138 | 114 | 98.6 | 37.2 | 18.1 | 32.3 |  |  |  |  |  |  |  |  |  |  | 
10 | COc1cc(/C=C/C(=O)CC(=O)/C=C/c2ccc(O)c(OC)c2)ccc1O | 66.6 | 96.9 | 108 | 98.8 | 102 | 99.5 | 104 | 118 | 90.4 | 15.1 | 5.19 | 77.5 | 114 | 119 | 128 | 137 | 120 | 120 | 128 | 99.5 | 23.6 | 5.59 | 72.8 | 96.8 | 106 | 108 | 107 | 115 | 107 | 118 | 90.8 | 34.8 | 5.02
11 | N#Cc1c(C2CCNCC2)cc(-c2c(O)cccc2OCC2CC2)nc1N | 108 | 106 | 107 | 109 | 114 | 115 | 108 | 108 | 100 | 77.4 | 34.2 | 103 | 107 | 106 | 115 | 121 | 110 | 97.3 | 118 | 102 | 82.8 | 29 | 98.7 | 108 | 104 | 104 | 106 | 108 | 101 | 98.1 | 85.3 | 72.6 | 43.7
12 | CCC1=C(C)CN(C(=O)NCCc2ccc(S(=O)(=O)NC(=O)N[C@H]3CC[C@H](C)CC3)cc2)C1=O | 78.7 | 91.5 | 93.2 | 93.3 | 86.4 | 104 | 103 | 109 | 114 | 104 | 116 | 81.1 | 92.2 | 95 | 85.5 | 93 | 92.6 | 94.8 | 100 | 94.7 | 92.6 | 94.7 | 94.9 | 87.6 | 101 | 86.2 | 93.7 | 94.8 | 96.1 | 87.7 | 94.3 | 96 | 94.1
13 | CCOc1cc2c(c(F)c1OCC)C(=N)N(CC(=O)c1cc(N3CCOCC3)c(OC)c(C(C)(C)C)c1)C2 | 96.2 | 95.6 | 95.7 | 101 | 94 | 110 | 117 | 108 | 104 | 97.8 | 59.8 | 110 | 98.1 | 93.9 | 113 | 111 | 103 | 114 | 121 | 108 | 107 | 52.5 | 83.9 | 105 | 99.8 | 101 | 119 | 116 | 117 | 124 | 117 | 125 | 74.4
14 | COC1=CC=C(C=C1)C/2=C/OC3=CC(=CC=C3C2=O)O | 116 | 113 | 113 | 114 | 123 | 109 | 114 | 122 | 130 | 115 | 136 | 117 | 124 | 136 | 109 | 133 | 117 | 98.9 | 106 | 143 | 122 | 145 | 124 | 139 | 112 | 110 | 115 | 120 | 122 | 121 | 133 | 131 | 142
